In patent US12648933B2, “Pharmaceutical preparation” (KOWA COMPANY, LTD., priority 2018, dated 2026):
“Also recorded” adds a separate entry of the source.

Assay: Examination on Stability (storage at 60° C. and 80% RH for 21 days, state of sample)
Assay type: physicochemical
Settings: glass vessel with lid opened (1-1 to 1-3) or closed glass bottle = tight package (1-4)
From the text: Examination on Stability […] […] Pemafibrate as it was placed in a glass vessel with a lid opened and labeled as Sample 1-1. […] Ethylcellulose ([…] Co., Ltd.) was mixed with pemafibrate in a ratio of 1 part by mass to 1 part by mass of pemafibrate to obtain a mixture. […] Ethylcellulose ([…] Co., Ltd.) was mixed with pemafibrate in a ratio of 1 part by mass to 1 part by mass of pemafibrate to obtain a mixture.

State of mixture, immediately after the start of storage (start of storage): White powder
Compound: CC[C@@H](Oc1cccc(CN(CCCOc2ccc(OC)cc2)c2nc3ccccc3o2)c1)C(=O)O [Sample 1-1, (2R)-2-[3-([1,3-Benzoxazol-2-yl[3-(4-methoxyphenoxy)propyl]amino]methyl)phenoxy]butanoic acid]
State of mixture, 21 days later (after 21 days of storage): maintained the same state; also recorded: White powder
